Data reported in PMC3734245, “Surface Display and Bioactivity of Bombyx mori Acetylcholinesterase on Pichia pastoris” (PLoS ONE, 2013).

target: T1, displayed BmAChE (Bombyx mori, UniProt A5A2M5); experiment: Ellman assay, yeast cell suspension displaying the enzyme; assay type: cell-based
T1 construct: signal peptide and hydrophobic C-terminal tail removed; N-terminal FLAG tag; (Gly4Ser)3 linker to S. cerevisiae AGalpha1 anchor at C-terminus; bmace about 1900 bp; primers encode N-terminal RSWANH and C-terminal TGPYSS
T1 sequence (A5A2M5 entry or part of it): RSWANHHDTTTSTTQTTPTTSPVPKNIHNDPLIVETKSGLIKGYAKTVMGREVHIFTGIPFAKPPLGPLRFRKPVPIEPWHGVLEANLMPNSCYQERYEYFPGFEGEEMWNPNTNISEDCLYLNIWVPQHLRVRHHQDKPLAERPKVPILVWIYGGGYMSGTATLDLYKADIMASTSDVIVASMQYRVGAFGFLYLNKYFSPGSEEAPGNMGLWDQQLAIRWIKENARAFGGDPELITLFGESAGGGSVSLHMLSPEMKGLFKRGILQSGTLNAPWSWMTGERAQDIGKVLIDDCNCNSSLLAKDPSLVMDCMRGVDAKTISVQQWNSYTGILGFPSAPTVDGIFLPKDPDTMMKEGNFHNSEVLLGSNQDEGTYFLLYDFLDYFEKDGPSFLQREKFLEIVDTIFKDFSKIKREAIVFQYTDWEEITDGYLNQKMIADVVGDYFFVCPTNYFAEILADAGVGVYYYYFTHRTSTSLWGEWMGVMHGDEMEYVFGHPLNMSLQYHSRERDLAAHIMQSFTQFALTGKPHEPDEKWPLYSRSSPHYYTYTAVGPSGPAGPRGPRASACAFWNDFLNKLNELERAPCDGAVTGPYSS

In order of rising IC50:
1. CNC(=O)Oc1cccc2c1OC(C)(C)C2 [carbofuran]  1.92 nM
2. CNC(=O)Oc1ccccc1C(C)C [isoprocarb]  11.1 nM
3. CNC(=O)Oc1ccc2c(c1)[C@]1(C)CCN(C)[C@@H]1N2C [eserine]  41.7 nM
4. CNC(=O)ON=C(C)SC [methomyl]  64.1 nM
5. CNC(=O)Oc1cc(C)c(SC)c(C)c1 [methiocarb]  65.8 nM
6. CCCCN(CCCC)SN(C)C(=O)Oc1cccc2c1OC(C)(C)C2 [carbosulfan]  113 nM
7. COP(=O)(OC)C(O)C(Cl)(Cl)Cl (stereo not shown) [trichlorphon]  240 nM
8. COP(=O)(OC)OC=C(Cl)Cl [dichlorphos]  903 nM
9. COP(N)(=S)Oc1ccccc1C(=O)OC(C)C (stereo not shown) [isocarbophos]  910 nM
10. COP(N)(=O)SC (stereo not shown) [methamidophos]  1070 nM
11. CCOP(=S)(OCC)Oc1ccc([N+](=O)[O-])cc1 [parathion]  1130 nM
12. CNC(=O)CSP(=S)(OC)OC [dimethoate]  1140 nM
13. CCOC(=O)CC(SP(=S)(OC)OC)C(=O)OCC (stereo not shown) [malathion]  1410 nM
